Laboratory results as given in patent US10369123B2, “Perk activator for the treatment of neurodegenerative diseases” (DEUTSCHES ZENTRUM FÜR NEURODEGENERATIVE ERKRANKUNGEN E.V. …, priority 2014, dated 2019).
“Also recorded” adds a separate entry of the source.

Key:
[1] = test system: P301S tau transgenic mice; assay: Rotarod test; assay type: in vivo, mouse; conditions: 2 mg/kg i.p. once daily for 6 weeks, 23 weeks of age, vs saline
Procedure: All animal work was conducted either on CR57BL/6 mice, obtained from Charles River Laboratories, Wilmington, Mass., USA, or on homozygous transgenic mice overexpressing human tau with the P301S mutation on a C57BL/6 background, originally developed by Michel Goedert (Xu et al. 2014), obtained by own breeding. Animals were kept at 23±1° C. under standard 12 h light-dark cycle with free access to food and water. They were handled according to the EU Council Directive 2010/63/EU, the Guide for the Care and Use of Laboratory Animals (National Research Council 2011) and the guidelines of the local institutional committee. The experiments were authorized by the local authority “Regierung von Oberbayern” under application number 55.2-1-54-2532-165-13.
5 mg of the PA compound CCT020312 (EMD Millipore, Billerica, Mass., USA) was first dissolved in 100 μl sterile DMSO (AppliChem, Darmstadt, Germany) and then diluted in sterile saline (B. Braun Medical, Melsungen, Germany) to achieve a stock solution of […].
For the efficacy trial in the late disease stage (Xu et al. 2014), P301S mice and wild type littermates received once daily i.p. injections of 2 mg/kg CCT020312 or saline from 17 to 22 weeks of age (n=12 for CCT020312 treated P301S mice, n=9 for other groups); they were analyzed with the Rotarod test in the 23rd week of age. […]

[2] = test system: paired helical filament tau (AT180); assay: Immunohistochemistry of P301S mouse hippocampus; assay type: in vivo; conditions: P301S mice, 2 mg/kg i.p. once daily for 6 weeks from 17 weeks of age, vs saline
Procedure: For the efficacy trial in the late disease stage (Xu et al. 2014), P301S mice and wild type littermates received once daily i.p. injections of 2 mg/kg CCT020312 or saline from 17 to 22 weeks of age (n=12 for CCT020312 treated P301S mice, n=9 for other groups); they were analyzed with the Rotarod test in the 23rd week of age.
Twelve hours after the last injection, animals were anesthetized by i.p. injections of pentobarbital at (100 mg/kg) and transcardially perfused with 0.1 M phosphate buffer for 2 min, then fixed for 10 min with 4% paraformaldehyde. Post-fixation of the brain was done in 4% paraformaldehyde at 4° C. for 48 h. Their brains were prepared for histological analysis, as described (Xu et al. 2014). For the immunoblot analysis in P301S mice and wild type mice were sacrificed by cervical dislocation, their brains were frozen on dry ice and stored at −80° C. for Western blot analysis.
Fixed brains (n=6 per group) were cut into 30 μm-thickness of coronal sections with a cryomicrotome (CM3050 S, Leica). […]

LUHMES neurons = assay: Morphological inspection and counts of viable cells; assay type: cell-based, human; conditions: co-treatment with PERK activator
Procedure: (§1) Nunc™ Nunclon™ Delta 6-well (for protein and mRNA) or 48-well (for cell assays) plates (Thermo Fisher Scientific, Waltham, Mass., USA) were coated with 100 μg/ml poly-L-lysine (Sigma-Aldrich, St. Louis, Mo., USA) and 5 μg/ml fibronectin (Sigma-Aldrich). LUHMES (Lund Human Mesencephalic) cells, derived from human embryonic ventral mesencephalic cells by conditional immortalization (Tet-off v-myc over-expression) were seeded out in a concentration of 130,000 cells/cm^2 to achieve a confluence of 50%. They were then differentiated for 8 days in a medium of DMEM/F12 (Sigma-Aldrich), 1 μg/ml tetracycline, […] and 490 μg/ml dbcAMP into post-mitotic neurons with a dopaminergic phenotype (Lotharius et al. 2005).
For all experiments with annonacin, the medium was replaced during the intoxication period with new medium containing glucose levels reduced to 250 μM, i.e. the physiological concentration in the human brain.
The protection by the PERK activator against annonacin and 4R-tau protein overexpression was also evident on morphological inspection of the cells. […] Lentiviral 4R-tau overexpression had similar effects. […] Cell counts of viable cells with intact nuclear and somatic morphology were counted in randomly selected 1300×1000 sized areas in 4 biological replicates each, confirming the protective effects of Pa.

[3] = test system: 4R-tau and 3R-tau isoforms; assay: Western blot of 3R-/4R-tau isoforms, annonacin model; assay type: cell-based, human; conditions: annonacin 25 nM + PERK activator, 48 h
Procedure: as §1, with “2005). […]” for “2005).”
Protein was extracted by scraping the cells from the culture plate with Mammalian Protein Extraction Reagent (M-PER, Thermo Fisher Scientific) and 1× cOmplete Protease Inhibitor Cocktail Tablets (Hoffmann-La Roche, Basel, Switzerland) and 1× PhosSTOP Phosphatase Inhibitor Cocktail Tablets (Hoffmann-La Roche). […] Protein concentrations were determined using the BCA kit (Thermo Fisher Scientific) by heating the samples at 60° C. for 30 min and measuring the absorption on the NanoDrop 2000c Spectrophotometer (Thermo Fisher Scientific). […]

**Q.** Which “Rotarod performance (latency to fall)” value [1] does the source give for CCN(CC)CCC(=O)N1N=C(c2c(-c3ccccc3)c3cc(Br)ccc3[nH]c2=O)CC1c1ccc(Br)cc1 (stereo not shown) [CCT020312, 6-bromo-3-[5-(4-bromo-phenyl)-1-(3-diethylamino-propionyl)-4,5-dihydro-1H-pyrazol-3-yl]-4-phenyl-1H-quinolin-2-one] here?
**A.** The value was “significantly improved; also recorded: increased performance”.

**Q.** And the “AT180-immunoreactivity in the hippocampal region, histology” value [2]?
**A.** Its value is “decreased”.

**Q.** What about the “number of viable cells: toxicity of annonacin and 4R-tau overexpression” value (LUHMES neurons) of the same molecule?
**A.** The value was “mitigated these effects”.

**Q.** What about the 4R-tau protein amount [3] of the same molecule?
**A.** The 4R-tau protein amount was “reduced”.
